# Reference: PubChem BioAssay (NCI)
# Where “and” joins values, the source holds several entries; their conditions need not be identical. Equal values may be shown once.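 Following 48 hours of exposure in 96-well plates, responses at five concentrations were used to interpolate endpoints linearly. GI50 is the concentration that inhibits growth by half. TGI marks complete inhibition of growth.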
# Experiments:
# Assay in all cases: DTP human tumour cell line panel, 48 h
# [1] = test system: RPMI-8226 leukemia
# [2] = test system: 786-0 renal
# [3] = test system: HCT-116 colon
# [4] = test system: UACC-62 melanoma
# [5] = test system: SW-620 colon
# [6] = test system: SNB-19 CNS
# [7] = test system: U251 CNS
# [8] = test system: HCT-15 colon
# [9] = test system: UO-31 renal
# [10] = test system: MALME-3M melanoma
# [11] = test system: SN12C renal
# [12] = test system: M14 melanoma
# [13] = test system: A549 NSCLC
# [14] = test system: SR leukemia
# [15] = test system: TK-10 renal
# [16] = test system: HOP-92 NSCLC
# [17] = test system: A498 renal
# [18] = test system: NCI/ADR-RES ovarian
# [19] = test system: DU-145 prostate
SMILES,TGI [1],TGI [2] [µM],TGI [3] [µM],TGI [4] [µM],TGI [5] [µM],TGI [6] [µM],TGI [7] [µM],TGI [8] [µM],TGI [9] [µM],TGI [10] [µM],TGI [11] [µM],TGI [12] [µM],TGI [13] [µM],TGI [14] [µM],TGI [15] [µM],TGI [16] [µM],TGI [17] [µM],TGI [18] [µM],TGI [19] [µM],GI50 [1]
CC1(C)OC(=O)C(C#N)=C1/C=C/c1coc2ccc(Cl)cc2c1=O,> 100 µM,> 100,> 100,89.8,> 100,> 100,> 100,87.2,83.6,66.1,96,> 100,> 100,> 100,–,–,–,–,–,–
CC(=O)NC(CCCNC(=O)N(CCCl)N=O)C(=O)NCc1ccccc1 (configuration not stated),> 100 µM,> 100,> 100,> 100,> 100,> 100,> 100,> 100,> 100,> 100,> 100,> 100,> 100,> 100,> 100,> 100,–,–,–,–
O=c1[nH]cc(COCCCO)c(=O)[nH]1,> 100 µM,> 100,> 100,> 100,> 100,> 100,> 100,> 100,> 100,> 100,> 100,> 100,> 100,> 100,> 100,> 100,> 100,–,–,–
NC(N)=NCC[C@H](NC(=O)OCCCCCn1ccc(=O)[nH]c1=O)C(=O)O,> 100 µM,> 100,> 100,> 100,> 100,> 100,> 100,> 100,> 100,> 100,> 100,–,> 100,–,> 100,> 100,–,> 100,> 100,–
CC1(C)C=Cc2c(cc(O)c3c(=O)c4cc(Cl)ccc4[nH]c23)O1,6.27 µM,> 10,> 10,> 10,> 10,6.4,> 10,> 10,5.91,7.5,> 10,–,> 10,> 10,> 10,7.79,–,5.97,–,–
Nc1n[n+](CC(=O)c2ccccc2)c2sc(-c3ccccc3)nn12,> 100 µM,> 100,> 100,82.7,> 100,> 100,> 100,> 100,> 100,> 100,> 100,> 100,> 100,–,> 100,–,> 100,> 100,> 100,–
c1ccc2c(c1)C1CCCCCC21N1CCOCC1 (configuration not stated),–,> 100,> 100,> 100,> 100,> 100,> 100,> 100,> 100,–,> 100,> 100,> 100,–,> 100,–,> 100,–,–,–
COC(=O)c1onc(-c2c(OC)cc(OC)cc2OC)c1C(=O)OC,> 100 µM,> 100,> 100,> 100,> 100,> 100,> 100,> 100,> 100,> 100,–,> 100,> 100,> 100,> 100,> 100,–,–,–,–
Cc1ccc(-c2nnc(-c3nn(-c4ccccc4)c4nc5ccccc5nc34)o2)cc1,> 100 µM,21.6,25,30.8,> 100,76,59.1,> 100,39,–,> 100,> 100,41.4,> 100,31.2,20.9,–,–,–,–
COc1cccc(NC(=O)CSc2nnc(-c3ccc(NC(C)=O)cc3)o2)c1,> 100 µM,> 100,> 100,> 100,> 100,–,> 100,> 100,> 100,> 100,> 100,> 100,> 100,> 100,> 100,> 100,–,–,–,–
COc1ccc2c(c1)C(=O)C1CC(=O)CCC21 (configuration not stated),> 100 µM,> 100,> 100,> 100,> 100,> 100,> 100,> 100,> 100,> 100,> 100,> 100,> 100,> 100,> 100,> 100,> 100,–,–,–
Cc1[nH]c2ccccc2c1C(=O)CC1(O)C(=O)Nc2c(Cl)cc(Cl)cc21 (configuration not stated),53.8 µM,> 100,> 100,–,52,> 100,> 100,> 100,60.9,36.1,55.6,53.9,96.3,54.8,> 100,–,67.4,–,–,–
Cc1ccc2c(C3Cc4ccccc4N3C(=O)/C=C\C(=O)O)c(C)[nH]c2c1 (configuration not stated),79.7 µM,> 100,> 100,97.6,> 100,> 100,> 100,72.5,> 100,> 100,> 100,> 100,> 100,72.9,> 100,84.1,> 100,–,–,–
C/C=C1\CN2CCc3c([nH]c4ccccc34)C2CC1C(=O)OC (configuration not stated),> 322 µM,> 322,> 322,> 322,> 322,> 322,> 322,> 322,–,> 322,> 322,–,> 322,> 322,> 322,> 322,–,–,–,–
CC(=O)C(CN(CC(C)C)CC(C)C)C(c1ccccc1)c1c(O)c2ccccc2oc1=O (configuration not stated),> 100 µM,> 100,> 100,> 100,> 100,> 100,–,> 100,–,> 100,> 100,> 100,> 100,–,> 100,> 100,> 100,–,–,–
COc1cccc(OC)c1C(=O)OCc1ccccc1,> 100 µM,> 100,> 100,> 100,> 100,–,> 100,> 100,–,–,> 100,> 100,> 100,> 100,> 100,> 100,–,–,–,–
Cn1c(=O)c2c(nc3n2CC(=O)N3CCCCl)n(C)c1=O,> 100 µM,> 100,> 100,> 100,> 100,> 100,> 100,> 100,> 100,–,> 100,> 100,> 100,–,> 100,> 100,> 100,> 100,> 100,–
O=C(O)c1ccc(C2COc3ccc(Cl)cc3C2)cc1 (configuration not stated),> 100 µM,> 100,> 100,> 100,> 100,> 100,> 100,> 100,> 100,> 100,> 100,> 100,> 100,> 100,> 100,> 100,> 100,–,–,–
C=CC[C@@H](N)C(=O)N(C)[C@@H](C)[C@@H](O)c1ccccc1,–,> 100,> 100,> 100,> 100,> 100,> 100,> 100,> 100,–,–,> 100,> 100,–,> 100,> 100,> 100,> 100,> 100,–
COC(=O)[C@@H]1CC(C(C[N+](=O)[O-])c2ccc(O[Si](C)(C)C(C)(C)C)cc2)C(=O)N1C(=O)OC(C)(C)C (some centres not stated),72.4 µM and 95 µM,> 100,> 100,–,> 100,> 100,> 100,–,> 100,> 100,> 100,> 100,> 100,> 100,> 100,> 100,> 100,–,> 100,3.2 µM and 23.7 µM
CN(N=O)C(=O)ON1C(=O)CCC1=O,> 100 µM,> 100,> 100,> 100,> 100,> 100,–,> 100,> 100,> 100,–,> 100,> 100,–,> 100,> 100,> 100,–,–,–
Cc1ccc(/C=C/C(=O)C(C)(C)CN2CCCCC2)cc1,14.7 µM,18.9,22.6,30.3,7.99,8.73,27.5,20.1,22,29.3,15.1,20.2,33.1,–,24.1,–,19.5,–,–,–
CC(=O)C1C(=O)C(=O)N(c2cccc([N+](=O)[O-])c2)C1=O (configuration not stated),–,> 100,> 100,> 100,> 100,> 100,> 100,> 100,> 100,–,> 100,> 100,> 100,–,> 100,> 100,–,> 100,> 100,–
O=C(CSc1nnc(Cc2ccccc2)o1)Nc1ccccc1,> 100 µM,> 100,> 100,> 100,–,–,> 100,> 100,> 100,> 100,> 100,> 100,> 100,–,> 100,–,> 100,–,–,–
CC1=NC(=Cc2cccc(Cl)c2)C(=O)N1n1c(-c2ccccc2)nc2ccccc2c1=O,> 100 µM,> 100,> 100,> 100,> 100,> 100,–,> 100,> 100,82.1,> 100,> 100,> 100,63.5,> 100,–,83.1,–,> 100,–
COc1c(F)c(F)c(/C(O)=C\c2nc3ccccc3[nH]c2=O)c(F)c1F,> 10 µM,5.99,–,> 10,> 10,–,–,> 10,–,> 10,> 10,> 10,> 10,> 10,> 10,> 10,–,–,> 10,–
Cc1n[nH]c(=O)n1N1C(=O)CCCC1=O,–,> 100,> 100,> 100,–,–,> 100,–,–,> 100,> 100,> 100,> 100,–,> 100,–,> 100,> 100,> 100,–
O=c1nc(NC2CCCCO2)ccn1CCO (configuration not stated),> 100 µM,> 100,> 100,> 100,> 100,–,> 100,> 100,> 100,> 100,> 100,> 100,> 100,> 100,> 100,> 100,> 100,–,–,–
CCCP1(=O)C=C(C)C(=C(Cl)Cl)C(C)=C1 (configuration not stated),–,> 100,> 100,> 100,> 100,–,> 100,> 100,> 100,> 100,66.7,> 100,> 100,77.4,> 100,89.6,> 100,–,–,–
CC(=O)CN(Cc1cc(C)c2c(c1)c1ccccc1n2Cc1ccccc1)S(=O)(=O)c1ccc(C)cc1,> 100 µM,> 100,> 100,> 100,> 100,> 100,–,–,> 100,> 100,–,> 100,> 100,> 100,> 100,> 100,–,–,–,–
